From patent US8207119B2, “Ophthalmological composition” (Nihon Tenganyaku Kenkyusho Co., Ltd., priority 2002, dated 2012)

Key:
[1] = system: rabbit corneal wound model; experiment: Corneal wound healing promotion action 2 (in vivo), approx. 8 mm corneal epithelial abrasion; set-up: species or system Japanese white rabbit; details: 0.3% eye drop, 25 μl per instillation; 0 hr after abrasion; mean ± SD, n=6
Procedure: (3) Corneal Wound Healing Promotion Action 2 (In vivo)
Using the same method as (2) above, corneal epithelial abrasion was induced in a Japanese white rabbit to produce a wound of approximately 8 mm in diameter in the cornea. The wound area was measured using the fluorescein-stained area as an index to examine the effects on corneal wound healing.
The eye drops containing the respective concentrations of the test compound were instilled (25 μl at a time) at 0, 6, 12, 18, 24, 30, 36, 42, 48, and 54 hours after induction corneal epithelial abrasion. In measuring the wound area, fluorescein staining was carried out and a photograph of the cornea was measured. The fluorescein-stained area of the photographed cornea was computed using an image analysis processing system.
(§1) In Tables 3 and 4, the respective values indicate the mean value±standard deviation (n=6). Statistical analysis was carried out using Dunnett's multiple comparison with respect to physiological saline with the area of the corneal wound portion immediately after (0 hours after) corneal epithelial abrasion being set to 100% (*p<0.05, **p<0.01; vs. control).

[2] = system: rabbit corneal wound model; experiment: Corneal wound healing promotion action 1 (in vivo), approx. 6 mm corneal epithelial abrasion; set-up: species or system Japanese white rabbit; details: 5 μM eye drop, 30 μl per instillation; 0 hr after abrasion; mean ± SD, n=6
Procedure: (2) Corneal Wound Healing Promotion Action 1 (In Vivo)
Using a male Japanese white rabbit, a wound of approximately 6 mm in diameter was produced in the cornea by inducing corneal epithelial abrasion in accordance with the method of Cintron et al. (Ophthalmic Res., 11, pp. 90-96 (1979)). The wound area was measured using the fluorescein-stained area as an index. The effects of the test compound on corneal wound healing were examined.
The eye drops containing the respective concentrations of the test compound were instilled (30 μl at a time) at 0, 3, 6, 9, 12, 18, 24, 27, 30, 33, 36, 42, and 48 hours after inducing corneal epithelial abrasion. In measuring the wound area, fluorescein staining was carried out and a photograph of the cornea was measured. The fluorescein-stained area of the photographed cornea was computed using an image analysis processing system.
as §1, with “1” for “3”, “2,” for “4,”, “PBS” for “physiological saline”

Substance	Healing ratio (%) [1] [%]	Healing ratio (%) [2] [%]
hyaluronic acid	0	
EGF: polypeptide with a molecular weight of 6000, mitosis-promoting growth factor for corneal epithelium (NSDSECPLSHDGYCLHDGVCMYIEALDKYACNCVVGYIGERCQYRDLKWWELR; Epidermal growth factor; UniProt P01133 971-1023, looked up)		0
